Patent US7332605B2, “Process for the synthesis of CXCR4 antagonist” (AnorMED, Inc., priority 2004, dated 2008)
≈ marks a conversion by molar mass, not a printed value. Like-named read-outs stand apart in the source and are kept apart here.

Assays:
[1] = Solubility of compound I in organic crystallization solvents; type: physicochemical; conditions: organic solvent or mixture
Experimental: A crystallization solvent (solvent B) is then added which can include, but is not limited to the following, or mixtures of the following: tetrahydrofuran, ethyl acetate, cumene, isopropyl acetate, n-propyl acetate, dichloromethane, ethanol, isopropanol, methanol, isopropyl ether, diethyl ether and t-butyl methyl ether. A preferred solvent is isopropyl acetate. A sufficient volume of solvent B is added to typically reach a complete solvation of compound I at an elevated temperature. The elevated temperature will depend on the nature of the solvent, with a reflux condition being the highest temperature possible.
The crystalline compound I may also be isolated from a number of different solvent systems. Compound I is soluble at >600 mg/mL in 55° C. tetrahydrofuran, and can be recovered as crystalline material by cooling the solution. Similarly, compound I can be isolated as crystalline material from a hot solution of cumene. Compound I is very soluble in dichloromethane (>700 mg/mL), but can be precipitated as a crystalline material from the solution through the addition of diethyl ether. Ethyl acetate is an effective solvent for crystallization, with solubilities of compound I of ca. 150 mg/mL at 60° C. being achievable.

[2] = Solubility of Formula I compound in aqueous media; type: physicochemical; conditions: aqueous media at a pH at or below 6.0
Excerpt: The Formula I compound in freebase form, in a mixture of dichloromethane and another solvent can be washed with an aqueous base such as 0.5N sodium hydroxide to remove traces of hydrazine. The Formula I compound can then be extracted into a dilute aqueous acid such as 1N hydrochlororic acid. […] If the pH of the aqueous solution is below 5, it can then be adjusted to 5-7, with a preferred pH being 6.0 for the removal of impurities. Non-polar organic impurities will remain in the organic layer. A number of solvents can be used, if desired, for further extraction of non-polar organic impurities including ethyl acetate, methyl t-butyl ether, tetrahydrofuran, dichloromethane and chloroform.

HIV, X4 (T-tropic) virus = conditions: in humans; cited from earlier work

solubility ([1]; 60 °C, isopropyl acetate at 60-65° C., read-out: complete solubility in isopropyl acetate) [mg/mL]	solubility ([1]; dichloromethane, read-out: solubility in dichloromethane) [mg/mL]	solubility ([1]; 55° C. tetrahydrofuran, read-out: solubility in tetrahydrofuran) [mg/mL]	solubility ([1]; ethyl acetate at 60° C., read-out: solubility in ethyl acetate) [mg/mL]	solubility in aqueous media [2]	SMILES	effect on HIV viral load and X4 (T-tropic) virus levels (HIV, X4 (T-tropic) virus)
~125 (≈ 358 mM)	> 700	> 600	~150 (≈ 429 mM)	readily soluble	NCCCCN(Cc1nc2ccccc2[nH]1)C1CCCc2cccnc21 (stereo not drawn) [Compound I, N′-(1H-benzimidazol-2-ylmethyl)-N′-(5,6,7,8-tetrahydro-quinolin-8-yl)-butane-1,4-diamine]	–
–	–	–	–	–	c1cc(CN2CCCNCCNCCCNCC2)ccc1CN1CCCNCCNCCCNCC1 [AMD3100]	reduce HIV viral load and X4 (T-tropic) virus levels
